Consider 21 compounds from ChEMBL document CHEMBL1921668, “Discovery of new aminopyrimidine-based phosphoinositide 3-kinase beta (PI3Kβ) inhibitors with selectivity over PI3Kα” (Bioorg Med Chem Lett, 2011).

Usually Kd stands for the concentration at which binding is half-saturated. As usually defined, the IC50 is the concentration needed to halve the response being measured.

The target in experiment [1] is T1, Phosphatidylinositol 4,5-bisphosphate 3-kinase catalytic subunit beta isoform (Homo sapiens, UniProt P42338). Put plainly: Inhibition of PI3Kbeta assessed as enzyme activity at 10 uM relative to control. Further details: scale not given: the % may be the effect or the level left.
Target sequence in this assay (P42338 whole entry, looked up, canonical isoform): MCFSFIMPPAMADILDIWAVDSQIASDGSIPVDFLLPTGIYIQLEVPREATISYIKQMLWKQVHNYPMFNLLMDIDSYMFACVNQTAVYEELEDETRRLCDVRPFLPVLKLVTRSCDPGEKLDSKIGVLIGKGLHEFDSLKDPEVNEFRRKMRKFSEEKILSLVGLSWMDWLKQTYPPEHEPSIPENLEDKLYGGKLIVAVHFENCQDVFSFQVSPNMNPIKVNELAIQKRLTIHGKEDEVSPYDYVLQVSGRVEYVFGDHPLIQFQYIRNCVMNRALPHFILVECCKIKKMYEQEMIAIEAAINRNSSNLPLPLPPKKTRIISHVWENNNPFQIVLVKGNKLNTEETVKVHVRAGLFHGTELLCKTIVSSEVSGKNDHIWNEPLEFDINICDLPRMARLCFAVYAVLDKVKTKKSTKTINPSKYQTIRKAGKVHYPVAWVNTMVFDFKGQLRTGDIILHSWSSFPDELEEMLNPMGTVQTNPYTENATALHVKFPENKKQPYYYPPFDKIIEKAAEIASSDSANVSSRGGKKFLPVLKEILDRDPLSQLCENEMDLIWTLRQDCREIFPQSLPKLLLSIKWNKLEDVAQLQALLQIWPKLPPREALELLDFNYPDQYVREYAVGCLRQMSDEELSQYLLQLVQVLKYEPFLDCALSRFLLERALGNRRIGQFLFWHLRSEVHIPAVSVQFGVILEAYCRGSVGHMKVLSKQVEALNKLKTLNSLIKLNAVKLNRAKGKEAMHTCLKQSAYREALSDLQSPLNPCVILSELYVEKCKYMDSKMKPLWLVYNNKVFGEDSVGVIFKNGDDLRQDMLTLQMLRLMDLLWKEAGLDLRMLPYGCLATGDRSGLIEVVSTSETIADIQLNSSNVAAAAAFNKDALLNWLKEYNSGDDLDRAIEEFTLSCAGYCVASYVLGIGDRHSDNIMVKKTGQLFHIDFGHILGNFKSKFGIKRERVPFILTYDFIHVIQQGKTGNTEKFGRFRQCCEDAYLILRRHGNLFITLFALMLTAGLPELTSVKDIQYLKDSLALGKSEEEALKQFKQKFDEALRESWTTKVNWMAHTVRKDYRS
In experiment [2] the target is T2, Phosphatidylinositol 4,5-bisphosphate 3-kinase catalytic subunit alpha isoform (Homo sapiens, UniProt P42336). As to the kind of experiment: Inhibition of PI3Kalpha assessed as enzyme activity at 10 uM relative to control. Further details: scale not given: the % may be the effect or the level left.
In experiment [3] the target is T1, Phosphatidylinositol 4,5-bisphosphate 3-kinase catalytic subunit beta isoform. As to the kind of experiment: Binding affinity to PI3Kbeta.
Target sequence in this assay (P42338 whole entry, canonical isoform): as the sequence (P42338 whole entry, looked up, canonical isoform) above
In experiment [4] the target is Phosphatidylinositol 4,5-bisphosphate 3-kinase catalytic subunit gamma isoform (Homo sapiens) (UniProt P48736). As to the kind of experiment: Inhibition of PI3Kgamma assessed as enzyme activity relative to control. Set-up: scale not given: the % may be the effect or the level left.
Experiment [5] addresses T3, Phosphatidylinositol 4,5-bisphosphate 3-kinase catalytic subunit delta isoform (Homo sapiens) (UniProt O00329).
T3 sequence (whole entry): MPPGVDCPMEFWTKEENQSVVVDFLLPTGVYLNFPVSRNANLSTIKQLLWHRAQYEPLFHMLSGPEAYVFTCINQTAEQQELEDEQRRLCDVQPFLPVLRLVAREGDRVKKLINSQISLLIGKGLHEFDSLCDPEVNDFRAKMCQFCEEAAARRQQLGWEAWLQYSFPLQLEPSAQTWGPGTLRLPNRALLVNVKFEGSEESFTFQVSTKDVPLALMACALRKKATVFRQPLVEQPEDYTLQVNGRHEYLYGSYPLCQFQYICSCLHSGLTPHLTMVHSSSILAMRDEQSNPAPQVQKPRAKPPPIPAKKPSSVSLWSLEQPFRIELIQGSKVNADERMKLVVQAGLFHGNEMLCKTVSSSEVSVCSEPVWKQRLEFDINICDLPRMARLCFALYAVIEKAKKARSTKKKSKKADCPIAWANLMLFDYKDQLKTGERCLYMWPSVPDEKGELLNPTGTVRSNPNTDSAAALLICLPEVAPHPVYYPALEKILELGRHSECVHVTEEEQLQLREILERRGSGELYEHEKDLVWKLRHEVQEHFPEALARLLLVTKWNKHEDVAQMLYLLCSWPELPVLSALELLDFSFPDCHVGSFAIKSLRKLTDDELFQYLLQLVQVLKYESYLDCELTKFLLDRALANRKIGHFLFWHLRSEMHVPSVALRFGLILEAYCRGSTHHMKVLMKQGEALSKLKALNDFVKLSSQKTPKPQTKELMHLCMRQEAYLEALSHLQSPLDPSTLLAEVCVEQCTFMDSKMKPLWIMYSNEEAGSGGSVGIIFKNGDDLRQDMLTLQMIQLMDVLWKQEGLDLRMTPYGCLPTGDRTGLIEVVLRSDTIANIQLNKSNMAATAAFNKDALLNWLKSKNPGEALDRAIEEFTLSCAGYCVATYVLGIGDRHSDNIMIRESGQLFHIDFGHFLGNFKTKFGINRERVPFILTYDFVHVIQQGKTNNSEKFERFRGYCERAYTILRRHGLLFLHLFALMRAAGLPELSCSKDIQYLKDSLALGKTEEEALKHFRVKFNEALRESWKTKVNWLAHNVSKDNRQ
Put plainly: Inhibition of PI3Kdelta assessed as enzyme activity relative to control. Further details: concentration or dose not given beside the values.

Experiment [6] concerns the target Serine/threonine-protein kinase mTOR (Homo sapiens) (UniProt P42345). As to the kind of experiment: Inhibition of mTOR assessed as enzyme activity relative to control. Further details: concentration or dose not given beside the values.
The test system of the next experiment is T47D. As to the kind of experiment: Antiproliferative activity against human T47D cells by MTT assay. Format: functional, cell-based. For orientation: Tetrazolium dyes change colour on reduction, which living cells bring about.
Experiment [7] has as its target T2, Phosphatidylinositol 4,5-bisphosphate 3-kinase catalytic subunit alpha isoform. Put plainly: Binding affinity to PI3Kalpha.

Phosphatidylinositol 4,5-bisphosphate 3-kinase catalytic subunit gamma isoform (Homo sapiens), sequence (P48736 whole entry, looked up, canonical isoform): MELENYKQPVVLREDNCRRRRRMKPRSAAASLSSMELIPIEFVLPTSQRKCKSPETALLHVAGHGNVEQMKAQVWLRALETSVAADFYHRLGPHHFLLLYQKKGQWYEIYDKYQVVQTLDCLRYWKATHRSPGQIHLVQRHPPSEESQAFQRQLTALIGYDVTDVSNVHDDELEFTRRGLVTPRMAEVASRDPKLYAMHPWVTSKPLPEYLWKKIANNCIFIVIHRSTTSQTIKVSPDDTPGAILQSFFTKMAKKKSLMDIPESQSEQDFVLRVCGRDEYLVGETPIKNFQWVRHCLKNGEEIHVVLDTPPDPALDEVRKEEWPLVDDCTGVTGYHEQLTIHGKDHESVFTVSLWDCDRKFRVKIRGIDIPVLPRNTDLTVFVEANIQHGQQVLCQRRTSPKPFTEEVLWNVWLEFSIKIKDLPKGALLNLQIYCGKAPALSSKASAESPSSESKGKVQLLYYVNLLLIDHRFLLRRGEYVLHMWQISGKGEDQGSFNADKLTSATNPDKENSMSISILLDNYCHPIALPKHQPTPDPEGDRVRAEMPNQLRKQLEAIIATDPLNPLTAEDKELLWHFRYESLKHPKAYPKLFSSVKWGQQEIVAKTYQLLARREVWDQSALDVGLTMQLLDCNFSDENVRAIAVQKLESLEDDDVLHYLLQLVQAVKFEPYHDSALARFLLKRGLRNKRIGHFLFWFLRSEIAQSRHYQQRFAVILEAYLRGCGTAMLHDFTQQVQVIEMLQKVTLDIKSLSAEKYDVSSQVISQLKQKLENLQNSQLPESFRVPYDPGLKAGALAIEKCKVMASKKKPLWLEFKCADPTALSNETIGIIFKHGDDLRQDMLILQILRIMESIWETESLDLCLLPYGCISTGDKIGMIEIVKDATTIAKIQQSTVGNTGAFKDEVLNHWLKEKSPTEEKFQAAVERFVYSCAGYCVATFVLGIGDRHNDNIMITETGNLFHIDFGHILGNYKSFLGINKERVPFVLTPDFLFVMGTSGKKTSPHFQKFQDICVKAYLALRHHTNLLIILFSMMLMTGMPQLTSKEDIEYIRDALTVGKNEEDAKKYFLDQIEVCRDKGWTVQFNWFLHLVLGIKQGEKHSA
T2 sequence (P42336 whole entry, canonical isoform): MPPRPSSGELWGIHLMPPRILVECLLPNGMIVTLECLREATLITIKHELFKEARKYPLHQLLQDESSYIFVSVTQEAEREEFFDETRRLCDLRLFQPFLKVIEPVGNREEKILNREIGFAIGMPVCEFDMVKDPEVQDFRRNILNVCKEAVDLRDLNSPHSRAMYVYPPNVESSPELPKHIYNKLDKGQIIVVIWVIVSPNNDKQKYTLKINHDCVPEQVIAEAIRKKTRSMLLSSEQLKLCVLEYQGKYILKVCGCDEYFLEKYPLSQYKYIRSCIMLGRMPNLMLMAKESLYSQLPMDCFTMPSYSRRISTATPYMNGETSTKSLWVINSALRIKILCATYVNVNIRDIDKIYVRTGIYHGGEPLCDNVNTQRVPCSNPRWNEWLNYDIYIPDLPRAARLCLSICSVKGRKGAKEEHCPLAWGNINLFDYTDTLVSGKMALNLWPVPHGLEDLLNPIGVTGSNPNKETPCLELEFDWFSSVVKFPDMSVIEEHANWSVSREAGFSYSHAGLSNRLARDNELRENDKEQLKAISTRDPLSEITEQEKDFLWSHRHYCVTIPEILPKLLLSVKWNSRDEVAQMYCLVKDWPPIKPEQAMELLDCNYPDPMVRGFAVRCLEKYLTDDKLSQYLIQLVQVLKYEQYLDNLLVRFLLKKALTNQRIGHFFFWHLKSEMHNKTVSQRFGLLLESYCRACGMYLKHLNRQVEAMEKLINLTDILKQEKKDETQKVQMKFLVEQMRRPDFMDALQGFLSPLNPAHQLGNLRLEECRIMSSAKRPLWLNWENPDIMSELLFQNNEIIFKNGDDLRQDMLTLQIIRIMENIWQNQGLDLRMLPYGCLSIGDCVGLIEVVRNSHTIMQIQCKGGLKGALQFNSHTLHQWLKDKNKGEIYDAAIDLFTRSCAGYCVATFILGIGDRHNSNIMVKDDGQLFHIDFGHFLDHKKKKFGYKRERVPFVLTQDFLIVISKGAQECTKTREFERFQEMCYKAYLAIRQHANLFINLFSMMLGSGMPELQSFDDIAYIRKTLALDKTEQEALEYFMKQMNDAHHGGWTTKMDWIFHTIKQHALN

`Cc1ccc(S(=O)(=O)Nc2cncc(-c3cnc(N)nc3)c2)cc1`: the Activity turned out to be 0.5% in experiment [1]; 17% in experiment [2]; 8.2% in experiment [4]; 3.4% in experiment [5]; 76% in experiment [6]. The Kd in experiment [3] is 100 nM. In the experiment on T47D, this compound showed an IC50 of 4700 nM.

For `Nc1ncc(-c2cncc(NS(=O)(=O)c3ccc4ccccc4c3)c2)cn1`, the Activity was 1% in experiment [1]; 92% in experiment [2]; 25% in experiment [4]; 4.2% in experiment [5]; 96% in experiment [6]. Further, the Kd is 230 nM in experiment [3] and above 40000 nM in experiment [7].

`COc1ccc(S(=O)(=O)Nc2cncc(-c3cnc(N)nc3)c2)cc1`: the Activity in experiment [1] came out at 1.7%; in experiment [2], 87%; in experiment [4] it was 20%; in experiment [5] it was 4.3%; in experiment [6], 39%. The same compound yielded a Kd in experiment [3] of 500 nM.

As for `CS(=O)(=O)Nc1cncc(-c2cnc(N)nc2)c1`, the Activity in experiment [1] turned out to be 28%; in experiment [2], 62%; in experiment [4] it was 43%; in experiment [5], 38%; in experiment [6], 67%. In experiment [3], this compound gave a Kd of 5200 nM.

Turning to `O=S(=O)(Nc1cncc(-c2cnc3nccn3c2)c1)c1ccccc1`, the Activity in experiment [1] amounted to 39%; in experiment [2] it was 95%.

With `Nc1ncc(-c2cncc(NS(=O)(=O)c3ccc([N+](=O)[O-])cc3)c2)cn1`, the Activity in experiment [1] came to 1.6%; in experiment [2], 18%; in experiment [4] it was 6.7%; in experiment [5] it was 9.5%; in experiment [6], 68%. Also, binding in experiment [3] was characterised by a dissociation constant (Kd) of 550 nM.

On to `Nc1ncc2cc(-c3cncc(NS(=O)(=O)c4ccccc4)c3)ccc2n1`, for which the Activity in experiment [1] and in experiment [2] was 0% throughout.

On to `CC(=O)Nc1ncc(-c2cncc(NS(=O)(=O)c3ccccc3)c2)cn1`, for which the Activity in experiment [1] worked out at 34%; in experiment [2] it was 100%.

Consider `Nc1ncc(-c2cncc(NS(=O)(=O)c3ccc(F)cc3F)c2)cn1`, for which the Activity stood at 0.7% in experiment [1]; 22% in experiment [2]; 7.2% in experiment [4]; 4.7% in experiment [5]; 56% in experiment [6]. In experiment [3], binding was characterised by a dissociation constant (Kd) of 220 nM. Besides, the IC50 with T47D worked out at 8500 nM.

Consider `Cc1nc(N)ncc1-c1cncc(NS(=O)(=O)c2ccccc2)c1`, for which the Activity in experiment [1] was 5.2%; in experiment [2] it was 66%.

As to `Nc1ncc(-c2cncc(NS(=O)(=O)c3cccc(C(F)(F)F)c3)c2)cn1`, the Activity in experiment [1] came to 1.2%; in experiment [2], 30%; in experiment [4] it was 9.6%; in experiment [5] it was 0.9%; in experiment [6], 41%. Binding in experiment [3] was put at a Kd of 430 nM.

On to `Cc1nc(N)nc(C)c1-c1cncc(NS(=O)(=O)c2ccccc2)c1`, for which the figures for the Activity in experiment [1] and in experiment [2] were 18% and 89%, respectively.

Regarding `Cc1ccc(S(=O)(=O)Nc2cncc(-c3cnc(N)nc3)c2)cc1[N+](=O)[O-]`, the Activity stood at 0.7% in experiment [1]; 42% in experiment [2]; 5.3% in experiment [4]; 0.1% in experiment [5]; 78% in experiment [6]. The compound further had a Kd in experiment [3] of 250 nM.

With `Nc1cncc(-c2cnc(N)nc2)c1`, the Activity in experiment [1] amounted to 86%; in experiment [2], 98%; in experiment [4] it was 100%; in experiment [5], 82%; in experiment [6] it was 53%. This compound returned an equilibrium dissociation constant (Kd) in experiment [3] above 40000 nM.

In the case of `Nc1ncc(-c2cncc(NS(=O)(=O)c3ccccc3)c2)cn1`, the Activity in experiment [1] is 1.4%; in experiment [2] it was 60%; in experiment [4], 24%; in experiment [5], 4.2%; in experiment [6], 74%. The same compound showed a Kd in experiment [3] of 360 nM. In addition, the IC50 in the experiment on T47D came to 9600 nM.

On to `CN(C)c1ncc(-c2cncc(NS(=O)(=O)c3ccccc3)c2)cn1`, for which the Activity in experiment [1] worked out at 66%; in experiment [2] it was 100%.

With `O=S(=O)(Nc1cncc(-c2cccnc2)c1)c1ccccc1`, the Activity stood at 7.4% in experiment [1] and 52% in experiment [2].

For the compound `CC(=O)Nc1cncc(-c2cnc(N)nc2)c1`, the Activity in experiment [1] turned out to be 69%; in experiment [2], 97%; in experiment [4], 98%; in experiment [5], 65%; in experiment [6], 79%. The compound also showed a Kd in experiment [3] above 20000 nM.

Take `O=S(=O)(Nc1cncc(-c2cnc3[nH]ccc3c2)c1)c1ccccc1`: the Activity in experiment [1] is 4.9%; in experiment [2], 56%.

Turning to `CNc1ncc(-c2cncc(NS(=O)(=O)c3ccccc3)c2)cn1`, the Activity in experiment [1] turned out to be 5.2%; in experiment [2], 39%.

Consider `O=S(=O)(Nc1cncc(-c2ccc3nccn3c2)c1)c1ccccc1`, for which the Activity in experiment [1] was 0.6%; in experiment [2] it was 4%.
